# Target: T1, human NPY Y5 receptor (Homo sapiens, UniProt Q15761)
# T1 construct: expressed in transfected cells; host or cells: COS-7, CHO and LM(tk-) cells; vectors pcDNA3, pRc/RSV, pCI-neo; membrane preparation
# T1 sequence (Q15761 1-445): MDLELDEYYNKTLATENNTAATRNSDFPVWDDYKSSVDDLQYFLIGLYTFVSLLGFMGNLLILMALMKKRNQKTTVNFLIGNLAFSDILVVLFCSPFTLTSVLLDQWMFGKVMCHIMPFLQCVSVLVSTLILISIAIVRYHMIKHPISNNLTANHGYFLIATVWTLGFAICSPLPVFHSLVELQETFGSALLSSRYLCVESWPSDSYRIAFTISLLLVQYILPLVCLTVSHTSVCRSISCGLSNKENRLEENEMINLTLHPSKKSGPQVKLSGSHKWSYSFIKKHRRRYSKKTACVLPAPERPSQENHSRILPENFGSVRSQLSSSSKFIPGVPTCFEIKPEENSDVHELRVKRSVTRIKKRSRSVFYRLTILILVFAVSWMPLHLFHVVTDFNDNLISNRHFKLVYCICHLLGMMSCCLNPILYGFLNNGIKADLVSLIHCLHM
# Assay: NPY binding inhibition test
# Settings: [125I]peptideYY binding to membrane sample from cells expressing NPY Y5 receptor, 25° C., 2 hours; read-out: NPY receptors binding inhibition IC50
# Description: Pharmacological Test (NPY Binding Inhibition Test)
# A sequence coding for human NPY Y5 receptor (c.f. International patent publication number W096/16542) was cloned into expression vectors pcDNA3, pRc/RSV (made by Invitrogen Inc.) and pCI-neo (made by Promega Inc.). The expression vectors thus obtained were transfected to host cells COS-7, CHO and LM(tk-) (American Type Culture Collection) by cationic lipid method (Proceedings of the National Academy of Sciences of the United States of America, vol. 84: p. 7413(1987)) to give NPY Y5 receptor expression cells.
# A membrane sample prepared from the cells which expressed NPY Y5 receptor was incubated together with a test compound and [^125I]peptideYY (made by NEN) (20,000 cpm) in an assay buffer (25 mM Tris buffer, pH 7.4, containing 10 mM magnesium chloride, 1 mM phenylmethylsulfonyl fluoride, 0.1% bacitracin and 0.5% bovine serum albumin) at 25° C. for 2 hours, then filtered through a glass filter GF/C and washed with 5 mM Tris buffer (pH7.4) containing 0.3% BSA. The radioactivity of the cake on the glass filter was measured. Non-specific binding was measured in the presence of 1 μM peptide YY, and 50% Inhibitory Concentration (IC50) of the test compound against specific peptideYY binding was determined (Endocrinology, vol. 131: p. 2090(1992)).
row,SMILES,IC50 [nM]
1,"O=C1OC2(CCC(C(=O)NC3CCC(c4ccccc4)CC3)CC2)c2ccccc21 (stereo not drawn) [Example 1, trans-3′-oxo-N-(trans-4-phenylcyclohexyl)-spiro[cyclohexane-1,1′(3′H)-isobenzofuran]-4-carboxamide]",2.5
2,O=C1OC2(CCC(C(=O)NC(CNCc3ccccc3)Cc3ccccc3)CC2)c2ccccc21 (centres unmarked) [Example 32],1.7
3,"CS(=O)(=O)N1CC2(CCC(C(=O)NC(Cc3ccncc3)C(=O)NCc3ccccc3)CC2)c2ccccc21 (stereo not drawn) [Example 46, Trans-N-[1-benzylcarbamoyl-2-(4-pyridyl)ethyl]-1-methylsulfonylspiro[indoline-3,1′-cyclohexane]-4′-carboxamide]",2
4,"O=C1OC2(CCC(C(=O)NC3CCC(c4cccc(F)c4)CC3)CC2)c2ncccc21 (stereo not drawn) [Example 27, Trans-N-[trans-4-(3-fluorophenyl)cyclohexyl]-3-oxospiro[7-azaisobenzofuran-1(3H),1′-cyclohexane]-4′-carboxamide]",3.6
5,"O=C1OC2(CCC(C(=O)NC3CCN(c4ccccc4F)CC3)CC2)c2ccccc21 (stereo not drawn) [Example 5, Trans-N-[1-(2-fluorophenyl)-4-piperidyl]-3′-oxo-spiro[cyclohexane-1,1′(3′H)-isobenzofuran]-4-carboxamide]",1.7

# Stronger by IC50, values ahead:
row,IC50 [nM],SMILES
1,1.2,"CS(=O)(=O)N1CC2(CCC(C(=O)NC3CCN(c4ccccc4)C3)CC2)c2ccccc21 [Example 41, Trans-1-methanesulfonyl-N-[(3S)-1-phenyl-3-pyrrolidinyl]spiro[indoline-3,1′-cyclohexane]-4′-carboxamide]"
2,0.8,"CS(=O)(=O)N1CC2(CCC(C(=O)NC3CCN(c4cccc(F)c4)CC3)CC2)c2ccccc21 (stereo not drawn) [Example 36, Trans-N-[1-(3-fluorophenyl)-4-piperidyl]-1-methanesulfonyl-spiro[indoline-3,1′-cyclohexane]-4′-carboxamide]"
3,0.69,"CS(=O)(=O)N1CC2(CCC(C(=O)NC(CNCc3ccccc3)Cc3ccccc3)CC2)c2ccccc21 [Example 45, Trans-N-[(S)-1-benzyl-2-(benzylamino)ethyl]-1-methylsulfonylspiro[indoline-3,1′-cyclohexane]-4′-carboxamide]"

# — US7205417B2, “Spiro compounds” (Banyu Pharmaceutical Co., Ltd., priority 2001, dated 2007)
